The subject of experiment [1] is isolated rat aorta. In words: In vitro induction of tolerance to NO releasing compounds (vasorelaxation of pre-exposed aortic rings, incl. cross-tolerance). It counts as cell-based. Particulars: for tolerance induction after pre-treatment with the same compound: rat aorta pre-treated with epinephrine and then 0.44 mM of the compound. As to the method:
Aortic rings were prepared as described hereinabove, and were exposed to 0.44 mM GTN (vehicle was water:ethanol:propyleneglycol at proportional ratio of 1:1:1) for 1 hour before CCRC construction, to thereby induce tolerance to nitroglycerine. At the end of the tolerance induction period, rings were thrice washed with the path buffer (Krebs-bicrbonate) every 15 minutes for the following hour and then CCRC for vasorelaxation on GTN-induced tolerance rings were constructed for GTN (pretreated versus untreated rings, FIG. 15), in order to verify the ability to induce and measure GTN tolerance induction in vitro
Attempted induction of tolerance to the NO-donating compounds of the present invention was performed under the same conditions as for GTN. Thus, in an exemplary experiment, rings were exposed to 0.44 mM solution of Pet-3 in the attempt to induce tolerance for Pet-3. CCRC were then measured for the vasorelaxing effect of Pet-3 on a group of rings which were pre-exposed to Pet-3 as to induce tolerance to Pet-3, and for an untreated control group. The above protocol was repeated with Pet-2, Pet-7, Pet-8, Pet-12, Pet-24, Pet-43, Pet-149 and Pet-152.
Cross-tolerance studies were conducted using the same technique described above for measuring vasorelaxation of aortic rings from rats. Two groups of aortic rings samples were pre-treated with GTN, then one group was measured for vasorelaxation by GTN and the second group for vasorelaxation by Pet-12, an exemplary NO-donor according to the present invention. For the opposite cross-tolerance studies, two groups of aortic rings samples were pre-treated with Pet-12, then one group was measured for vasorelaxation by GTN and the second group for vasorelaxation by Pet-12.

Experiment [2] has as its system c-GMP in slices of thoracic aorta of rats. In words: Cyclic-GMP measurement in aortic rat tissue (radioimmunoassay). Particulars: for cGMP Post-infusion: rat aorta, post-infusion (repeated treatment). It counts as cell-based. As to the method: GTN (10^−6 M) was added to the chamber and, 1 minute after exposure to the drug, rings (usually 3-5) were taken, wrapped with aluminum foil and immediately frozen in liquid nitrogen for storage. Control sample group was treated with the vehicle solution only. At the time of analysis, rings were thawed, blotted over a dry gauzed and weighted. A known weight of tissue was homogenized in 2 ml ice-cold modified Hank's balanced salt solution containing (in gram/liter) NaCl 8; KCl 0.4; glucose 1; KH2PO4 0.06; Na2HPO4 0.047; Phenol red 0.017 and further containing 25 mM EDTA (disodium salt). The homogenate was centrifuged at 4000 g (force units) for 10 minutes at 2-4° C. and the supernatant was thereafter transferred into fresh pre-cooled test tube containing 1 ml of acetonitrile. The tubes were vortex mixed for a few seconds and subsequently centrifuged at 4000 g for 5 minutes at 2-4° C., to remove the precipitated protein. Each supernatant was transferred into a clean test tube and evaporated to dryness under a stream of nitrogen at 55° C. The dry residue was reconstituted with 10 volumes of Tris-EDTA buffer pH 7.5 (0.05 M Tris containing 4 mM EDTA). Aliquots of 100 μl of the reconstituted solution in duplicate were used for c-GMP measurements using Amersham RIA kit, as is described in Haj-Yehia & Benet [Pharmacology, 1995, 273, 1, pp. 94-100]. Standard curves were plotted with six concentrations (0, 0.5, 1, 2, 4 and 8 pmoles of c-GMP per tube).
The NO-tolerance effect of GTN and NO-donor compounds according to the present invention was measured by following the production of c-GMP in slices of thoracic aorta of rats. Thus, the production of c-GMP was measured as described in the methods section above for the reference NO-donor compound GTN, and for the NO-donors of the present invention Pet-2, Pet-3, Pet-7, Pet-8, Pet-10, Pet-12, Pet-24, Pet-59, Pet-147, Pet-149, Pet-152, Pet-154 and Pet-155.

Experiment [3] concerns anesthetized hypertensive Sprague-Dawley male rats. In words: Hypotensive effects: mean arterial pressure after iv bolus in phenylephrine-treated rats. It counts as in vivo, rat. The text has this: These techniques were also used to detect tolerance induction by the NO-donors of the present invention and by GTN. For c-GMP levels and tolerance development, the rat's thoracic aorta was isolated after exposure to the tested compound in vivo, and measured as described above in the in vitro assays.
Mean arterial pressure (MAP) was monitored and determined during bolus infusion of Pet-2, Pet-3, Pet-7, Pet-8, Pet-12 and Pet-13. Briefly, polyethylene catheters (PE50) were inserted into the carotid artery and into the jugular vein of anesthetized hypertensive Sprague-Dawley male rats (200-300 grams). A blood pressure recorder was placed within the carotid artery. Phenylephrine (0.1 mg) was then injected and the mean arterial blood pressure (MABP) was monitored continuously until a stable baseline was reached. The hypotensive effects of intravenous (iv) bolus doses (0.1 mg of each tested compound) administered intravenously at the jugular vein in minimal volume of vehicle (0.2 ml per dose) were evaluated. Five minutes were allowed between each dose, during which the maximal decrease in MAP was recorded and a dose-response graph comparing the hypotensive effect of the compounds was constructed.

Experiment [4] concerns cGMP in thoracic aorta of rats treated in vivo. Kind of experiment: Induction of in vivo nitrate tolerance (16 hour infusion, then cGMP in isolated aorta). Also noted: species or system rat. Particulars: rats infused in vivo 16 hours, aorta re-exposed to the compound. As to the method:
Male Sprague Dawley rats (220 to 250 grams) were housed under constant temperature and humidity conditions. Light was maintained at a 12/12 light dark cycle. Except for 12 hours before the experiment, when food fasting was initiated, all rats had free access to standard rat pellet diet and tap water. The animals were anesthetized by intraperitoneal injection of ketamine and xylazine combination (50 and 10 milligram per kilogram, respectively). […] The catheters were filled with normal saline solution containing 1000 IU/ml of heparin and plugged with a metal pin. Catheters were externalized to the back of the neck region and secured by a polyester felt disk.
After implantation, the rats were individually housed until they regained their preoperative weight and appeared healthy (3 to 4 days post-operation). At this time point (day 0), an osmotic mini-pump (Alza Corp., Palo Alto, Calif.) delivering constant volume (10 μl/hour) of vehicle or drug was connected to one of the intravenous catheters.
For inducing tolerance to the tested NO-donor according to the present invention, the animals received 200 μg/hour of the tested compound for 16 hours (short-term-induced tolerance). A similar number of animals were processed by the same surgical procedure and received the vehicle alone (10 μl/hour of a solution consisting of 30% ethanol and 30% propylene glycol in sterile distilled water for injection).
At the end of the infusion periods used for the development of tolerance (16 hour), the rats were anesthetized as described above, the two catheters were externalized and the delivering catheters were disconnected from the mini-pump. The abdomen was opened by midline incision and the thoracic aorta were isolated, washed and cleaned from the surrounding tissues. Strips of the treated aortas were pooled in chambers containing Krebs-Hanseliet buffer (10 ml), and exposed to 1 μM of the tested NO-donor (final concentration) for 120 seconds. The tissues were quickly collected and frozen in liquid nitrogen for cGMP measurement, described hereinabove.

For experiment [5], the system named is isolated rat aorta. Kind of experiment: In vitro vasorelaxation, cumulative concentration-response curves on rat aortic rings contracted with epinephrine. It counts as cell-based. Particulars: isolated rat aorta pre-treated with 1 μM epinephrine. The text has this: Male Sprague Dawley rats were anaesthetized using intraperitoneal injection of ketamine and xylazine (50 and 10 milligram per kilogram, respectively) and the thoracic aorta, the large upper portion of the descending aorta, starting at the caudal border of the chest bone, was removed thereafter, while carefully removing the paraadventetial tissue surrounding the vessel. Aortae were cut into rings of 4-5 millimeters and mounted onto the tissue path. The path buffer (Krebs-bicrbonate) was constantly gassed with carbogen and maintained at 37° C. The rings were preloaded under 2 g tension and equilibrated for 90 minutes, while refreshing the buffer every 15 minutes. After stabilization, the rings were contracted with epinephrine (1 μM). Cumulative Concentration-Response Curves (CCRC) were measured for the vasorelaxing effect induced by adding various concentrations, ranging from 10^−10 M to 10^−5 M of Pet-2, Pet-3, Pet-7, Pet-8, Pet-12, Pet-24, Pet-43, Pet-59, Pet-147, Pet-152 and Pet-154, and glyceryltrinitrate (GTN), according to the procedure described in Feelich et al., Molecular Pharmacology, 56:243-253 (1999). The vehicle, which was used for this experiment was water:ethanol:propyleneglycol at proportional ratio of 1:1:1.
The vasorelaxing effect of the thiazole-derived NO-donors according to the present invention was measured on slices of thoracic aorta of rats contracted with epinephrine, as described hereinabove.
The obtained results for Pet-2, Pet-3, Pet-7, Pet-8, Pet-12, Pet-24, Pet-43, Pet-59, Pet-147, Pet-152 and Pet-154 are presented in FIGS. 2-14, and are summarized in Table 3 below.

Entries after “also recorded” stand apart in the source; their conditions may differ.

As to `Cc1nc(-c2cccnc2)sc1CCO[N+](=O)[O-]` [Pet-12, 3-[4-Methyl-5-(2-nitrooxy-ethyl)-thiazole-2-yl]-pyridine], the “tolerance induction after pre-treatment with the same compound” value in the experiment with isolated rat aorta [1] was “absence of tolerance induction”. Besides, in the experiment on isolated rat aorta [1] (rat aorta pre-treated with epinephrine and then with GTN), the “vasorelaxation in rings pre-treated with GTN (cross-tolerance)” value was “absence of tolerance induction effect; also recorded: no effect on the vasorelaxation capacity”. For the same compound, in the experiment with isolated rat aorta [1] (rat aorta pre-treated with epinephrine and then with Pet-12), the “vasorelaxation in rings pre-treated with Pet-12 (cross-tolerance)” value was “absence of tolerance induction effect; also recorded: does not evoke tolerance to itself not to GTN”. The “cGMP Post-infusion” value in experiment [2] is reported as 112 ± 12 pmol/g tissue. In addition, the “hypotensive / vasorelaxation effect on heightened mean arterial blood pressure” value in experiment [3] (rats pre-treated in vivo with phenylephrine, iv bolus 10-100 micrograms) is recorded as “vasorelaxation effect”. In addition, the “tolerance in vivo: cGMP level in aorta following repeated treatment” value (“tolerance in vivo: cGMP level” for short) in experiment [4] is on record as “absence of tolerance induction; also recorded: absence of tolerance effect; also recorded: lack of tolerance induction”.

As to `CCc1nc(C)c(CCO[N+](=O)[O-])s1` [Pet-2, 2-Ethyl-4-methyl-5-(2-nitrooxy-ethyl)-thiazole], in the experiment with isolated rat aorta [5], the “vasorelaxation effect as compared with glyceryltrinitrate (words)” value was “superior vasorelaxation effect”. The “cGMP Post-infusion” value in experiment [2] came out at 140 ± 13 pmol/g tissue. Further, the “tolerance in vivo: cGMP level” value in experiment [4] is recorded as “absence of tolerance induction; also recorded: absence of tolerance effect; also recorded: remained substantially unchanged”.

`O=[N+]([O-])OCC(CO[N+](=O)[O-])O[N+](=O)[O-]` [GTN, glyceryl trinitrate, reference compound]: in the experiment on isolated rat aorta [1], the “tolerance induction after pre-treatment with the same compound” value is reported as “tolerance induced”. The “cGMP Post-infusion” value in experiment [2] is on record as 45 ± 12^¥ pmol/g tissue. For the same compound, the “c-GMP level following a repeated treatment” value in experiment [2] (slices of thoracic aorta of rats) is on record as “significantly reduced”. Besides, in experiment [3] (iv bolus doses, rats), the “effect on MAP following successive administrations” value was “attenuation”. Further, the “tolerance in vivo: cGMP level” value in experiment [4] is given as “tolerance inducing effect; also recorded: decreased”.

The record behind these values is patent US7332513B2, “Thiazole-based nitric oxide donors having acyl substituent(s) and uses thereof” (priority 2004, dated 2008).
